The record followed here is ChEMBL document CHEMBL3351447, “Design, synthesis and anticancer evaluation of tetrahydro-β-carboline-hydantoin hybrids” (Bioorg Med Chem Lett, 2014).

The term IC50 denotes the concentration that gives 50% inhibition. Higher therefore signals a need for much substance.

Active and inactive are the calls of the source. The rule behind the calls is not given here.

Test [1] in a line: Cytotoxicity against human PC3 cells after 72 hrs by MTT assay. The format is functional, cell-based. To be noted: PC-3, 72 h. (In general: Tetrazolium assays rely on reduction of a dye to a coloured formazan, in cell work by metabolically active cells.)
The next test relates to HeLa. The test is described as follows: Cytotoxicity against human HeLa cells after 72 hrs by MTT assay. It is filed as functional, cell-based.
Test [2] is described as follows: Cytotoxicity against human ME180 cells after 72 hrs by MTT assay. The format is functional, cell-based. To be noted: ME-180, 72 h.
A short description of test [3]: Selectivity index, ratio of IC50 for human RWPE cells to IC50 for human PC3 cells. The format is functional.
The test system of the next test is MCF7. The test is described as follows: Cytotoxicity against human MCF7 cells after 72 hrs by MTT assay. It is filed as functional, cell-based. To be noted: MCF7, 72 h.
The next test relates to A549. The test is described as follows: Cytotoxicity against human A549 cells after 72 hrs by MTT assay. It is filed as functional, cell-based. To be noted: A549, 72 h.
Test [4] relates to PC-3. Nature of the test: Induction of cell cycle arrest in human PC3 cells assessed as accumulation at G2/M phase at 6 uM after 48 hrs by propidium iodide staining based flow cytometry (reference value: 20.9%). It is filed as functional.
The test system of test [5] is PC-3. The test is described as follows: Induction of cell cycle arrest in human PC3 cells assessed as accumulation at G0/G1 phase at 6 uM after 48 hrs by propidium iodide staining based flow cytometry (reference value: 55%). The format is functional. For orientation: In flow cytometry, cells or beads pass a laser one at a time.
For test [6], the system named is PC-3. Nature of the test: Induction of cell cycle arrest in human PC3 cells assessed as accumulation at G2/M phase at 3 uM after 48 hrs by propidium iodide staining based flow cytometry (reference value: 20.9%). The format is functional.
Test [7] concerns PC-3. The test is described as follows: Induction of apoptosis in human PC3 cells assessed as early apoptotic cells at 6 uM after 48 hrs by orange/ethidium bromide staining based fluorescence microscopy. The format is functional.
In test [8] the test system is PC-3. Nature of the test: Induction of cell cycle arrest in human PC3 cells assessed as accumulation at S phase at 3 uM after 48 hrs by propidium iodide staining based flow cytometry (reference value: 15.8%). It is filed as functional.
The test system of test [9] is PC-3. The test is described as follows: Induction of apoptosis in human PC3 cells assessed as induction of membrane blebbing at 3 and 6 uM after 48 hrs by orange/ethidium bromide staining based fluorescence microscopy. It is filed as functional, cell-based.
Test [10] deals with PC-3. The test is described as follows: Induction of cell cycle arrest in human PC3 cells assessed as accumulation at G2/M phase at 3 and 6 uM after 48 hrs by propidium iodide staining based flow cytometry. The format is functional.
For test [11], the system named is PC-3. The test is described as follows: Induction of cell cycle arrest in human PC3 cells assessed as accumulation at S phase at 6 uM after 48 hrs by propidium iodide staining based flow cytometry (reference value: 15.8%). It is filed as functional.
For test [12], the system named is PC-3. Nature of the test: Induction of apoptosis in human PC3 cells assessed as early apoptotic cells at 1 uM after 48 hrs by orange/ethidium bromide staining based fluorescence microscopy. It is filed as functional.
The subject of test [13] is PC-3. The test is described as follows: Induction of apoptosis in human PC3 cells assessed as induction of chromatin condensation with destructive fragmentation of the nucleus at 3 and 6 uM after 48 hrs by orange/ethidium bromide staining based fluorescence microscopy. It is filed as functional, cell-based.
Test [14] concerns PC-3. The test is described as follows: Induction of apoptosis in human PC3 cells assessed as induction of apoptotic body formation at 3 and 6 uM after 48 hrs by orange/ethidium bromide staining based fluorescence microscopy. It is filed as functional, cell-based.
In test [15] the test system is PC-3. Nature of the test: Induction of apoptosis in human PC3 cells assessed as induction of cell shrinkage at 3 and 6 uM after 48 hrs by orange/ethidium bromide staining based fluorescence microscopy. The format is functional.
In test [16] the test system is PC-3. Nature of the test: Induction of cell cycle arrest in human PC3 cells assessed as accumulation at G0/G1 phase at 3 uM after 48 hrs by propidium iodide staining based flow cytometry (reference value: 55%). The format is functional.
The subject of test [17] is PC-3. The test is described as follows: Induction of apoptosis in human PC3 cells assessed as early apoptotic cells at 3 uM after 48 hrs by orange/ethidium bromide staining based fluorescence microscopy. The format is functional.

For `O=C1[C@H]2Cc3c([nH]c4ccccc34)[C@@H](c3cccc(O)c3)N2C(=O)N1Cc1ccc(Br)cc1`, the IC50 was 9.13 µM in [1]; 11.2 µM with HeLa; 17.5 µM in test [2]; 27.9 µM in the test on MCF7; 35.4 µM with A549. Also, the “Ratio IC50” value in test [3] was determined as 1.7.

`COc1cc([C@@H]2c3[nH]c4ccccc4c3C[C@H]3C(=O)N(c4cccc(C(F)(F)F)c4)C(=O)N23)ccc1O`: the IC50 in [1] is 9.6 µM; with HeLa, 11.4 µM; in test [2], 27.4 µM; in the test on MCF7 it was 48 µM; with A549, over 100 µM. Moreover, the “Ratio IC50” value in [3] came out at 1.6.

Compound `COc1cccc2c1C(=O)c1c(O)c3c(c(O)c1C2=O)C[C@@](O)(C(=O)CO)C[C@@H]3O[C@H]1C[C@H](N)[C@H](O)[C@H](C)O1` [DOXORUBICIN] had an IC50 in [2] of 0.39 µM.

On to `COc1cc([C@@H]2c3[nH]c4ccccc4c3C[C@@H]3C(=O)N(c4ccc(Cl)cc4)C(=O)N23)ccc1O`, for which the IC50 is 13.4 µM in [1]; 30.6 µM in the test on HeLa; over 100 µM in [2]; 19.7 µM with MCF7; over 100 µM with A549.

Turning to `COc1cc([C@@H]2c3[nH]c4ccccc4c3C[C@@H]3C(=O)N(CCCl)C(=O)N23)ccc1O`, the IC50 in test [1] is 29.1 µM; in the test with HeLa, 33.1 µM; in [2] it was over 100 µM; in the test with MCF7 it was over 100 µM; in the test with A549, over 100 µM.

For the compound `COc1cc([C@@H]2c3[nH]c4ccccc4c3C[C@@H]3C(=O)N(Cc4ccc(Br)cc4)C(=O)N23)ccc1O`, the IC50 was 12 µM in test [1]; 84.3 µM in the test with HeLa; over 100 µM in test [2]; 19.9 µM in the test with MCF7; over 100 µM in the test with A549.

Turning to `COc1cc([C@@H]2c3[nH]c4ccccc4c3C[C@@H]3C(=O)N(c4cccc(C(F)(F)F)c4)C(=O)N23)ccc1O`, the IC50 in [1] was 11.7 µM; in the test on HeLa, 15.6 µM; in [2], 30.7 µM; in the test on MCF7, 35.9 µM; in the test on A549, 43.9 µM.

In the case of `O=C1[C@@H]2Cc3c([nH]c4ccccc34)[C@@H](c3cccc(O)c3)N2C(=O)N1c1cccc(C(F)(F)F)c1`, the IC50 in [1] was 37.1 µM; in the test with HeLa, 31.9 µM; in test [2] it was over 100 µM; in the test with MCF7 it was 70.9 µM; with A549, over 100 µM.

For `COc1cc([C@@H]2c3cc4c(cc3[C@@H](O[C@@H]3O[C@@H]5CO[C@@H](C)O[C@H]5[C@H](O)[C@H]3O)[C@H]3COC(=O)[C@H]23)OCO4)cc(OC)c1O` [ETOPOSIDE], the IC50 in test [1] is 14.4 µM; in the test on HeLa, 4.71 µM; in [2], 8.9 µM; with A549, 50 µM. Also, the “Ratio IC50” value in test [3] was 2.

In the case of `O=C1[C@H]2Cc3c([nH]c4ccccc34)[C@@H](c3cccc(O)c3)N2C(=O)N1CCCl`, the IC50 was 22.3 µM in test [1]; 30.3 µM with HeLa; 48 µM in [2]; over 100 µM in the test on MCF7; over 100 µM in the test on A549.

With `O=C1[C@@H]2Cc3c([nH]c4ccccc34)[C@@H](c3cccc(O)c3)N2C(=O)N1CCCl`, the IC50 amounted to 49 µM in test [1]; 60.3 µM in the test on HeLa; 59.5 µM in test [2]; 48.2 µM with MCF7; 68 µM in the test on A549.

For `O=C1[C@@H]2Cc3c([nH]c4ccccc34)[C@@H](c3cccc(O)c3)N2C(=O)N1c1ccc(Cl)cc1`, the Activity came to 34.1% in the test on PC-3 [4]; 45.5% in the test with PC-3 [5]; 31.5% with PC-3 [6]; 42.5% in the test with PC-3 [7]; 15.8% with PC-3 [8]; 11.8% in the test on PC-3 [11]. Further, the Activity with PC-3 [12] was 8%; in the test with PC-3 [16], 43.9%; with PC-3 [17], 25%. The IC50 in [1] is 6.08 µM; with HeLa, 6.5 µM; in test [2], 24.6 µM; in the test on MCF7, 26 µM; in the test with A549, 16 µM. Moreover, the “Ratio IC50” value in test [3] is recorded as 5. Moreover, the result in the test on PC-3 [9], in the test with PC-3 [13], in the test on PC-3 [14] and with PC-3 [15] was Active. In addition, the “fold change (FC)” value in the test with PC-3 [10] was found to be 1.63.

As for `COc1cc([C@@H]2c3[nH]c4ccccc4c3C[C@H]3C(=O)N(Cc4ccc(Br)cc4)C(=O)N23)ccc1O`, the IC50 in test [1] is over 100 µM; in the test with HeLa, 82.9 µM; in test [2], over 100 µM; with MCF7, over 100 µM; in the test with A549 it was 77.5 µM.

Take `O=C1[C@@H]2Cc3c([nH]c4ccccc34)[C@@H](c3cccc(O)c3)N2C(=O)N1Cc1ccc(Br)cc1`: the concentration for half-maximal inhibition (IC50) in test [1] worked out at 8.9 µM; with HeLa it was 24.3 µM; in test [2], 88.6 µM; with MCF7, 24.9 µM; in the test on A549, 34.8 µM. Moreover, in test [3], the “Ratio IC50” value amounted to 1.9.

Turning to `COc1cc([C@@H]2c3[nH]c4ccccc4c3C[C@H]3C(=O)N(c4ccc(Cl)cc4)C(=O)N23)ccc1O`, the IC50 is 13.4 µM in [1]; 30.3 µM in the test on HeLa; over 100 µM in test [2]; 42.2 µM with MCF7; over 100 µM with A549.

As to `COc1cc([C@@H]2c3[nH]c4ccccc4c3C[C@H]3C(=O)N(CCCl)C(=O)N23)ccc1O`, the IC50 in test [1] is 35.5 µM; in the test with HeLa, 50 µM; in test [2] it was over 100 µM; in the test on MCF7 it was 50.7 µM; in the test on A549, over 100 µM.

As to `O=C1[C@H]2Cc3c([nH]c4ccccc34)[C@@H](c3cccc(O)c3)N2C(=O)N1c1cccc(C(F)(F)F)c1`, the IC50 in test [1] worked out at 11.2 µM; with HeLa, 13.6 µM; in test [2], 22.6 µM; with MCF7 it was 42.6 µM; in the test on A549 it was 40 µM.

As to `O=C1[C@H]2Cc3c([nH]c4ccccc34)[C@@H](c3cccc(O)c3)N2C(=O)N1c1ccc(Cl)cc1`, the IC50 in test [1] came to 10.3 µM; with HeLa, 12.1 µM; in [2], 17 µM; in the test on MCF7 it was 40.5 µM; in the test on A549, 34.8 µM.
